The nature of series [1]: Blood stability test, incubation in blood at 37° C. The series is classed as in vitro ADME, human. How it is done: Blood was taken in EDTA tubes in order to prevent coagulation. 550 μl of ^18F-labeled (R)-Compound 3 was added to 1 ml of blood, and put in a rotating incubator at 37° C. The incubation times were 0, 30, 60 and 90 minutes. After the incubation, the blood was centrifuged for 5 minutes at 3000 rpm. The plasma was centrifuged again for 5 minutes at 10600 g and the pellet was discarded. 400 μl of the resulting supernatant was added to 800 μl of 30% THF/CH3CN, vortexed for 30 seconds and centrifuged for 5 minute at 10600 g. The supernatant was filtered through 0.45 μm filter and injected to HPLC column. The column was eluted with a mixture of acetate buffer (pH 3.8) and acetonitrile (35:65) at flow rate of 3 ml/min. The HPLC eluent was monitored sequentially for UV absorbance at 254 nm and radioactivity. Each sample was done in duplicate.
The same procedure was done with the ^11C-labeled (R)-Compound 3 after incubation of 0, 15, 30 and 45 minutes.
Blood stability, which was measured by phosphor-imager, was done in the same procedure. The filtered samples were loaded on reverse phase TLC plates and exposed to the phosphor-imager plates for 1 hour.
In the case of (R)-Compound 2, the incubation in the human blood sample was 0, 15, 30 and 45 minutes. The percent of extraction of the compound was around 40%.

Another series addresses T1, human AR recombinant (Homo sapiens, UniProt P10275).
T1 construct: purchased Pan-Vera
T1 sequence (P10275 1-920): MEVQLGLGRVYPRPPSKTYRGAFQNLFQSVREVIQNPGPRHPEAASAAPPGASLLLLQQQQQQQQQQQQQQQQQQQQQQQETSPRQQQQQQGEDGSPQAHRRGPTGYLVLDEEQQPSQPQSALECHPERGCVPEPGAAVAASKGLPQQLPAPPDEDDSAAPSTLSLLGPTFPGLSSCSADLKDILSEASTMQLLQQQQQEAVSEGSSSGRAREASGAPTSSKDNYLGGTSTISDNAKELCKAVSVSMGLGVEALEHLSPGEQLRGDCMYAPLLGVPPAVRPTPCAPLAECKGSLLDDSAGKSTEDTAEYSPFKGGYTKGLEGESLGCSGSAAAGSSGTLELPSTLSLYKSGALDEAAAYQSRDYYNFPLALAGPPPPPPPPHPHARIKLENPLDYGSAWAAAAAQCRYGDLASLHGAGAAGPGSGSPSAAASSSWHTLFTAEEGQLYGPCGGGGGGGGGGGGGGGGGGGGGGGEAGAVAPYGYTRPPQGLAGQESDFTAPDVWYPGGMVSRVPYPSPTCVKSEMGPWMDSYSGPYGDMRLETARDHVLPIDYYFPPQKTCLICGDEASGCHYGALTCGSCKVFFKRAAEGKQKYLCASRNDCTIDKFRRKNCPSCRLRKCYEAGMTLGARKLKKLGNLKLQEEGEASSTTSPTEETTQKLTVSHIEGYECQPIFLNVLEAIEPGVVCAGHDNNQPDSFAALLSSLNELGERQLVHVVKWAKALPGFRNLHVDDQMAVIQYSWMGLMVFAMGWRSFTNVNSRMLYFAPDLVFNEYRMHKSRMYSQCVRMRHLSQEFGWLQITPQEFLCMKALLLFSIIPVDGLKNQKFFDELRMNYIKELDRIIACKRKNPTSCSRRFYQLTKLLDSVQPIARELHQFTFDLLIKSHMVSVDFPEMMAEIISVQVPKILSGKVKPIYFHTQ
Kind of series: Relative Binding Affinity (RBA) assay, competitive binding with [3H]R1881. Particulars: against [3H]R1881; R1881 standard = 100 by definition. The procedure:
In order to measure the affinity of the compounds to the A, the compounds of the general Formula I, referred herein also as the AR ligands were tested in RBA (Relative Binding Affinity) assay, which is a competitive binding assay with ^3H—R1881, a high affinity AR binding ligand.
RBA of androgens were measured against [^3H]R1881 in human AR recombinant (Pan-Vera). RBA values of the standards are 100 by definition (Brandes S. J., et al., Molecular Pharmacology; 1987; 32:391-400).

For the next series, the system named is LNCap cell lines. Kind of series: Antagonist test, PSA secretion measured by ELISA. The class given is cell-based. Particulars: 48 and 72 hours; for PSA secretion in comparison to the control: given alone, testosterone 100 nM, compound 0.2, 0.5 and 1 μM. The procedure:
PSA (Prostate Specific Antigen) is a secreted protein which is regulated by AR and is clinically used to detect prostate cancer in humans. LNCap cell lines were seeded in 24 wells (10^5 cells/well) in 10% FCS RPMI supplemented with sodium-pyruvate, pen/strep, L-glutamine, testosterone and insulin and grown for 24 hours. Then, the cells were washed 3 times with cold PBS and incubated in 10% FCS red-phenol-free RPMI. Testosterone (100 nM), ^18F-labeled (R)-Compound 3 (0.2, 0.5 and 1 μM) or both were added to the wells. Ethanol, which was used as the solvent of the testosterone and ^18F-labeled (R)-Compound 3, was added to the control wells in the same concentration.
At 48 and 72 hours, a sample of the medium was taken and the PSA levels were measured by ELISA.
Background: In an ELISA, binding on a coated surface is turned into a signal by an enzyme label.

Where [2] appears, read: blood, 37° C., incubation 0, 30, 60 and 90 minutes, HPLC.

`CN(C)C[C@@](C)(O)C(=O)Nc1ccc([N+](=O)[O-])c(C(F)(F)F)c1` [(R)-Compound 2, (R)-3-Dimethyl-2-hydroxy-2-methyl-N-(4-nitro-3-trifluoromethyl-phenyl)-propionamide]: the percent of extraction result in series [1] (human blood sample, incubation 0, 15, 30 and 45 minutes) is on record as “around 40%”. Besides, the formation of metabolites result in series [1] (human blood sample, incubation 0, 15, 30 and 45 minutes, phosphor-imager) was “no metabolites were evident”. The “RBA (%)” value at human AR recombinant turned out to be 0.036%.

In the case of `CN(C)C[C@@](C)(O)C(=O)Nc1ccc(F)c(C(F)(F)F)c1` [(R)-Compound 3, (R)-3-Dimethyl-N-(4-fluoro-3-(trifluoromethyl)phenyl)-2-hydroxy-2-methyl-propanamide], on human AR recombinant, the “RBA (%)” value turned out to be 0.029%.

As to `CC(C)(O)C(=O)Nc1ccc(F)c(C(F)(F)F)c1` [(R)-F-2, N-(4-fluoro-3-(trifluoromethyl)phenyl)-2-hydroxy-2-methylpropanamide], on human AR recombinant, the “RBA (%)” value is 0.027%.

As to `CC(C)(O)C(=O)Nc1ccc([N+](=O)[O-])c(C(F)(F)F)c1` [Hydroxyflutamide], on human AR recombinant, the “RBA (%)” value came to 0.027%.

Consider `C[C@]1(O)CC[C@H]2[C@@H]3CCC4=CC(=O)CCC4=C3C=C[C@@]21C` [Compound R1881], for which the “RBA (%)” value on human AR recombinant was 100%.

`CN(C)C[C@@](C)(O)C(=O)Nc1ccc(C#N)c(C(F)(F)F)c1` [(R)-Compound 1, (R)-3-Dimethyl-N-(4-cyano-3-trifluoromethyl-phenyl)-2-hydroxy-2-methyl-propionamide]: on human AR recombinant, the “RBA (%)” value was 0.030%.

Consider `CN(C)C[C@@](C)(O)C(=O)Nc1ccc([18F])c(C(F)(F)F)c1` [^18F-labeled (R)-Compound 3], for which, in the series on LNCap cell lines, the “PSA secretion in comparison to the control” value is “reduced the PSA secretion”. The “testosterone-induced secretion of PSA” value in the series with LNCap cell lines (together with testosterone 100 nM, 0.2, 0.5 and 1 μM, P<0.01) is “significantly reduced the testosterone-induced secretion of PSA”. Besides, in series [1] (setting [2]), the metabolites in blood result is given as “no metabolites were evident” and the percent of extraction is on record as 39-43%.

Take `C[C@]12CC[C@H]3[C@@H](CCC4=CC(=O)CC[C@@]43C)[C@@H]1CC[C@@H]2O` [Testosterone, reference compound]: the “PSA secretion in comparison to the control” value in the series on LNCap cell lines is listed as “increased PSA secretion”.

On to `C[C@](O)(CBr)C(=O)Nc1ccc(F)c(C(F)(F)F)c1` [(R)-F-1, (R)-3-Bromo-N-(4-fluoro-3-(trifluoromethyl)phenyl)-2-hydroxy-2-methyl-propanamide], for which the “RBA (%)” value on human AR recombinant worked out at 0.057%.

(Values after patent US20090226368A1, “Androgen-Receptor (AR) Ligands for Use in the Treatment and Diagnosis of AR-Related Pathologies” (priority 2005, published 2009).)
